Consider 19 compounds from US12484574B2, “Agent for promoting undifferentiation and cryoprotective agent using aprotic zwitterion” (JAPAN SCIENCE AND TECHNOLOGY AGENCY, priority 2019, dated 2025).

Marks after values point to notes of the source that are not given here.

Data set [1] is described as follows: Glass transition temperature and heat quantity by differential scanning calorimetry (DSC). Particulars: 10 wt % in purified water, cooling −1° C./min, heating 5° C./min. In kind it is physicochemical. Here is the method:
The glass transition temperature and the heat quantity were determined by differential scanning calorimetry (DSC). The measurement was performed with a cooling rate set to −1° C./min an d a heating rate set to 5° C./min.

The subject of data set [2] is human fibroblasts. Briefly: Influence on cell cycle (Click-iT Plus EdU cell proliferation assay). In kind it is cell-based. Particulars: 2% addition; compared with no addition; FIG. 11. Here is the method: The cells used were human fibroblasts.
The test groups were 1% addition groups and 2% addition groups of DMSO and HLS (OE2imC3C) vs. a control.
Cell cycle analysis was conducted using Click-iT® Plus EdU cell proliferation assay (Thermo Fisher Scientific Inc.) containing 5-ethynyl-2′-deoxyuridine (EdU) according to the manufacturer's protocol. The cells were incubated in 10 μM EdU for 1 hour, treated with trypsin, then fixed in 4% PFA, and labeled with Alexa Fluor 647 picolyl azide. The cells were stained with 4′,6-diamidino-2-phenylindole (DAPI) and analyzed with BD FACSAria™ III (BD Biosciences).

The subject of data set [3] is Wild-type zebrafish AB*. Description: Influence on development of zebrafish. In kind it is in vivo. As to conditions: for Survival rate: fertilized eggs cultured 1.5 to 24 hours. The procedure: All experiments were conducted based on a protocol approved by the animal experiment committee of Kanazawa University. Wild-type zebrafish AB* was raised at 28.5° C. with 14-hour light/10-hour dark cycles in a circulating water system. The medium used was E3 medium (5 mM NaCl, 0.17 mM KCl, 0.33 mM CaCl2, 0.33 mM MgSO4). The medium was supplemented with 1%, 2%, 5% or 10% DMSO or HLS (OE2imC3C). For each test group, eggs were fertilized and then cultured for 1.5 to 24 hours. The embryos thus cultured were washed with E3 medium twice and treated with 1-phenyl-2-thiourea (FUJIFILM Wako Pure Chemical Corp.) in order to prevent pigmentation. The embryos were stained with 0.6 mg/mL o-dianisidine (Tokyo Chemical Industry Co., Ltd.) for 15 minutes and fixed in 4% paraformaldehyde (FUJIFILM Wako Pure Chemical Corp.). The embryos were washed with phosphate-buffered saline containing 0.1% Tween (Sigma-Aldrich Co. LLC) twice. The survival rate was similar between DMSO and HLS (OE2imC3C) up to the 2% addition groups, whereas the survival rate differed largely therebetween in the 5% addition groups.

In data set [4] the test system is Human renal cell. Description: Cell freezing experiment 4 (slow freezing), viable cell count as ratio to OE2imC3C. In kind it is cell-based. Particulars: −80° C., −1° C./min. The procedure:
(§1) As for the cryopreservation solution, the aprotic zwitterion of each example was dissolved by the addition of purified water to prepare test solutions containing 5% by weight and 10% by weight of the aprotic zwitterion.
(§2) The cells to be frozen were centrifugally recovered by trypsin treatment and diluted with Dulbecco's modified Eagle medium (DMEM), and each cell concentration was measured. The types and cell concentrations of the cells are as follows. • Mouse skin fibroblasts 5.0×10^5 cells/100 μl • Human renal fat cells 5.0×10^5 cells/100 μl
(§3) Subsequently, the cells of each type were dispensed at 1 ml/tube to 1.5 ml tubes, centrifuged, suspended in 100 μl each of the cryopreservation solutions described above, and frozen at a cooling temperature of −80° C. at a cooling rate of −1° C./min using a cell freezing container Mr. Frosty®.
(§4) 1 ml of a medium was added to the cryopreservation vial for thawing, and a supernatant was removed by centrifugation. Subsequently, the cells obtained by centrifugation were resuspended in a medium, followed by the measurement of a viable cell count. The results are indicated by a ratio to the viable cell count of OE2imC3C.

The subject of data set [5] is Mouse skin fibroblast. The data set is described as above. In kind it is cell-based. As to conditions: −80° C., −1° C./min. The procedure: as §1, §2, §3, §4

As to `C=CCn1cc[n+](CCCC(=O)[O-])c1` [AimC3C], in data set [1], the Heat quantity was -188.37 J/g and the Tg is −85 °C.
Consider `C=CCn1cc[n+](CCCS(=O)(=O)[O-])c1` [AimC3S], for which, in data set [1], the Heat quantity is -213.16 J/g and the Tg is −85.76 °C.
As for `C=CCn1cc[n+](CCCCS(=O)(=O)[O-])c1` [AimC4S], in data set [1], the Heat quantity is -210.34 J/g and the Tg is −86.07 °C.
Turning to `C[S+](C)[O-]` [DMSO, dimethyl sulfoxide], in data set [2], the “influence on cell cycle (G0/G1 phase, S phase)” value is “prolonged the G0/G1 phase and drastically shortened the S phase”. Further, the “development of surviving fertilized eggs (abnormality)” value in data set [3] (5 % v/v in E3 medium) was “did not normally develop”. Further, the Survival rate is reported as 27/27 in data set [3] (Concentration 1 % (v/v for DMSO, w/v for HLS) in E3 medium); 27/27 in data set [3] (Concentration 2 % (v/v for DMSO, w/v for HLS) in E3 medium); 4/27* in data set [3] (Concentration 5 % (v/v for DMSO, w/v for HLS) in E3 medium); 0/27 in data set [3] (Concentration 10 % (v/v for DMSO, w/v for HLS) in E3 medium).
With `Cn1cc[n+](CCCC(=O)[O-])c1` [Example C1imC3C], in data set [1], the Heat quantity is -199.61 J/g and the Tg is −95.22 °C.
Taken in the same sequence, the figures for `Cn1cc[n+](CCCS(=O)(=O)[O-])c1` [Example C1imC3S] were -173.36 J/g and −88.88 °C.
As to `C[n+]1ccn(CCCCCC(=O)[O-])c1` [Example C1imC5C], the “viable cell count, ratio to the viable cell count of OE2imC3C” value (shortened to “viable cell count, ratio”) stood at 1.94 in data set [4] (5 wt % in purified water), 0.72 in data set [4] (10 wt % in purified water), 0.82 in data set [5] (5 wt % in purified water) and 1.09 in data set [5] (10 wt % in purified water). Also, the Heat quantity in data set [1] is -169.61 J/g. In data set [1], the Tg is −84.51 °C.
On to `CCCCn1cc[n+](CCCC(=O)[O-])c1` [Example C4imC3C], for which, in data set [1], the Heat quantity is -198.66 J/g and the Tg was −75.3 °C.
Taken in the same sequence, the figures for `CCCCn1cc[n+](CCCCCC(=O)[O-])c1` [Example C4imC5C] were -183.73 J/g and −74.59 °C.
In the case of `CCCCCCCCn1cc[n+](CCCC(=O)[O-])c1` [Example C8imC3C], in data set [1], the Heat quantity was -187.42 J/g and the Tg is −84.05 °C.
As to `CCCCCCCC[n+]1ccn(CCCS(=O)(=O)[O-])c1` [Example C8imC3S], the “viable cell count, ratio” value is given as 0.00 in data set [4] (5 wt % in purified water), 0.33 in data set [4] (10 wt % in purified water), 0.00 in data set [5] (5 wt % in purified water) and 0.04 in data set [5] (10 wt % in purified water).
`CCCCCCCCCCCCCC[N+](C)(C)CCCC(=O)[O-]` [N1,1,14C3C]: the “viable cell count, ratio” value in data set [4] (5 wt % in purified water) is reported as 0.59; in data set [4] (10 wt % in purified water) it was 0.56; in data set [5] (5 wt % in purified water), 0.58; in data set [5] (10 wt % in purified water), 0.77. In data set [1], the Heat quantity is -182.67 J/g. Besides, the Tg in data set [1] was −74.96 °C.
On to `COCCn1cc[n+](CCCC(=O)[O-])c1` [OE1imC3C], for which, in data set [1], the Heat quantity is -188.49 J/g and the Tg is −86.07 °C.
Taken in the same sequence, the figures for `COCCOCCn1cc[n+](CCCS(=O)(=O)[O-])c1` [OE2imC3S] were -190.84 J/g and −85.48 °C.
Taken in the same sequence, the figures for `COCCOCCn1cc[n+](CCCCCC(=O)[O-])c1` [OE2imC5C] were -190.82 J/g and −83.34 °C.
Taken in the same sequence, the figures for `O=C([O-])CCC[n+]1ccccc1` [PyC3C] were -182.59 J/g and −90.35 °C.
`C[N+]1(CCCC(=O)[O-])CCCC1` [PyrrC3C]: in data set [1], the Heat quantity is -188.06 J/g and the Tg is −91.85 °C.
Taken in the same sequence, the figures for `C=Cn1cc[n+](CCCC(=O)[O-])c1` [VimC3C] were -182.17 J/g and −85.74 °C.
Taken in the same sequence, the figures for `C=Cn1cc[n+](CCCS(=O)(=O)[O-])c1` [VimC3S] were -170.72 J/g and −81.06 °C.
